Assay [1] concerns Interleukin-2 (IL-2) production/release in Jurkat T cell line. Nature of the assay: Jurkat IL-2 Production Assay. It is filed as cell-based. The following applies: Homo sapiens; Jurkat T cells, PHA stimulation 22 hours. The procedure:
Jurkat IL-2 Production Assay
The effect of compounds of the invention on Interleukin-2 (IL-2) production/release was tested in the Jurkat T cell line (ECACC) clone E6-1. Jurkat T cells were cultured in DMEM/F12/Glutamax (Gibco) containing 10% FCS (Gibco), and maintained at 37° C., 5% CO2. Cell were split twice a week [5*10^6 (Mon-Thu) and 1*10^7 (Thu-Mon) cells/50 ml medium in T-175 ZK culture flasks, respectively]. Prior to experiment, cells were seeded on 96 well plates (Cellstar 96 Well; Cat No. 655180, Greiner bio-one) at a density of 5*10^5 cells/well in DMEM/F12/Glutamax (Gibco) containing 10% FCS (Gibco), and incubated for 60 min at 37° C., 5% CO2. Subsequently, compounds were added and cells were allowed to incubate for 30 min at 37° C., 5% CO2. Cells were then stimulated with 15 μg/ml Phytohemagglutinin (PHA; Sigma) for 22 hours at 37° C., 5% CO2. Before sampling of the supernatants, cells were spun down (200*g/5 min/RT). The amount of IL-2 released into the supernatant was quantified with the human IL-2 AlphaLisa kit (Perkin Elmer) according to manufacturer's instructions. Luminescence proximity measurements were carried out in the Synergy H4 reader (BioTek) employing the fluorescence setting of the reader (ex: 680/30 nm; em: 620/40 nm). Inhibition of IL-production/release in/from Jurkat T cells was quantified as follows: Zero percent inhibition (MAX) was defined as the [IL-2] determined in supernatants derived from cells to which PHA & DMSO-only had been added instead of compound. Hundred percent inhibition (MIN) was defined as the [IL-2] determined in supernatants derived from cells that had been pre-treated with 1 μM CyclosporineA (Sigma) before the addition of 15 μg/ml PHA. For routine IC50 determinations of compounds, 8 concentrations of a serial dilution (1:3.16) were tested, starting off from 10 μM.

The target of assay [2] is T1, CRAC channel (endogenous SOC in HEK293 cells) (Homo sapiens, UniProt Q96D31).
T1 construct: endogenous in cells; host or cells: HEK293 (ECACC)
Nature of the assay: HEK Calcium Influx Assay (FLIPR). It is filed as cell-based. The procedure: The effect of compounds of the invention on intracellular [Ca^2+] was tested in the HEK293 cell line (ECACC). HEK293 cells were cultured in DMEM/F12/Glutamax (Gibco) containing 10% FCS (Gibco), and maintained at 37° C., 5% CO2. Cell were split twice a week [3*10^6 (Mon-Thu) and 1*10^6 (Thu-Mon) cells/50 ml medium in T-175 ZK culture flasks, respectively]. Twenty four hours pre-experiment, cells were seeded on 96 well plates (Poly-D-Lysine 96well Black/Clear Plate, BD Biocoat REF 356640) at a density of 40,000 cells/well in DMEM/F12 (Gibco) containing 10% FCS (Gibco), and maintained at 37° C., 5% CO2. Prior to store-depletion, cell culture medium was removed and cells were loaded with the a Calcium-sensitive fluorescent dye comprised within the Calcium-4-assay kit (Molecular Devices) in nominally Ca^2+-free HBS buffer (140 mM NaCl, 4 mM KCl, 0.2 mM MgCl2, 11 mM D-glucose, and 10 mM HEPES, pH 7.4) according to manufacturer's instruction for 60 min at 37° C., 5% CO2. Passive depletion of intracellular Ca^2+-stores was then triggered by employing the SERCA inhibitor thapsigargin (2 μM final) for 10 min in the dark (RT). To prevent immediate Ca^2+-entry via the activated Store-operated channels (SOCs), cells were maintained in Ca^2+-free HBS buffer comprising 100 μM EGTA during store-depletion. Intracellular changes in [Ca^2+] were subsequently monitored with the FLIPR device (Molecular Devices). In brief, baseline imaging post-store depletion was allowed for 1 min before adjusting the extracellular buffer to 3 mM CaCl2. Increases in intracellular [Ca^2+] due to pre-activated SOC channels were monitored for 15 min until intracellular Ca^2+ levels had declined into a steady-state. Finally, compounds were administered and Ca^2+ signals were recorded for additional 10 min. Inhibition of endogenous SOC in HEK293 cells was quantified employing the average Ca^2+ signal measured from 9.5-10 min post-administration. Zero percent inhibition (MAX) was defined as the Ca^2+ signal recorded from wells to which DMSO-only had been added instead of compound. Hundred percent inhibition (MIN) was defined as the signal obtained from wells in which cells haven't been treated with TG prior to Ca^2+ addition and to which DMSO-only had been added instead of compound. For routine IC50 determinations of compounds, 8 concentrations of a serial dilution (1:3.16) were tested, starting off from 10 μM. Reliable IC50's could consequently be determined only, if they were at least sub 2.5-3 μM.

[3] abbreviates: thapsigargin store depletion, read-out: % inhib. [@ 10 μM] FLIPR.
Setting [4] is: numeric values of Table 2, read-out: inhib. [@ 10 μM] FLIPR.

This is an account of results in US20150166505A1, “PYRIDINYL-SUBSTITUTED PYRAZOLYL CARBOXAMIDES” (GRÜNENTHAL GMBH, priority 2013, published 2015).

Each structure is given as a SMILES string. Where a name gives a salt, the structure may show the parent alone. Read-outs that look alike come from different tables or passages of the source. Where only a bound is given, the exact number is not on record here.

The IC50 is the concentration at which inhibition is half-maximal.

T1 sequence (Q96D31 whole entry): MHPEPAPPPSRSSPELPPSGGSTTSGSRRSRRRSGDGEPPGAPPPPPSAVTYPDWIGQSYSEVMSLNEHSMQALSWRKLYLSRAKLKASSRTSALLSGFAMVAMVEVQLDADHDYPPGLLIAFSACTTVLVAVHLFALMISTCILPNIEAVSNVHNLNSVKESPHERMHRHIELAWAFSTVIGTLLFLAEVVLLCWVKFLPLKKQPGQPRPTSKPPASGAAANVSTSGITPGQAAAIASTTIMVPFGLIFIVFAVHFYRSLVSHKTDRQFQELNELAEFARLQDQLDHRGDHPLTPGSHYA

Turning to `COc1cc(C)c(-c2cc(C(=O)Nc3c(F)cccc3F)nn2C)cn1` [Example 58, N-(2,6-Difluoro-phenyl)-5-(6-methoxy-4-methyl-pyridin-3-yl)-1-methyl-1H-pyrazole-3-carboxylic acid amide], the IC50 in assay [1] is 1 to 5 µM. As for `COc1cc(Cl)c(-c2cc(C(=O)Nc3c(F)cccc3F)nn2C)cn1` [Example 56, 5-(4-Chloro-6-methoxy-pyridin-3-yl)-N-(2,6-difluoro-phenyl)-1-methyl-1H-pyrazole-3-carboxylic acid amide], in assay [1], the concentration for half-maximal inhibition (IC50) was in the range of 0.5 to 1 µM. For the same compound, the inhibition at 10 µM in assay [2] (setting [3]) was > 70%. With `Cn1nc(C(=O)Nc2c(F)cccc2F)cc1-c1nc(C(C)(C)C)ccc1C#N` [Example 73, 5-(6-tert-Butyl-3-cyano-pyridin-2-yl)-N-(2,6-difluoro-phenyl)-1-methyl-1H-pyrazole-3-carboxylic acid amide], the inhibition at 10 µM in assay [2] (setting [3]) is < 50%. The same measure, in the same setting: to `Cc1cc(C#N)ncc1-c1cc(C(=O)Nc2c(F)cccc2F)nn1C` [Example 41, 5-(6-Cyano-4-methyl-pyridin-3-yl)-N-(2,6-difluoro-phenyl)-1-methyl-1H-pyrazole-3-carboxylic acid amide] belongs < 50%.

As to `Cn1nc(C(=O)Nc2c(F)cncc2F)cc1-c1cnc(C2CC2)cc1C(F)(F)F` [Example 63, 5-[6-Cyclopropyl-4-(trifluoromethyl)-pyridin-3-yl]-N-(3,5-difluoro-pyridin-4-yl)-1-methyl-1H-pyrazole-3-carboxylic acid amide], the IC50 in assay [1] is 1 to 5 µM. The inhibition at 10 µM in assay [2] (setting [3]) is > 70%. Take `CCOc1cc(OC)c(-c2cc(C(=O)Nc3c(F)cccc3F)n[nH]2)cn1` [Example 68, N-(2,6-Difluoro-phenyl)-5-(6-ethoxy-4-methoxy-pyridin-3-yl)-1H-pyrazole-3-carboxylic acid amide hydrochloride]: the IC50 in assay [1] lay within 1 to 5 µM. In assay [2] (setting [3]), the inhibition at 10 µM is > 70%.

On to `CCOc1cc(C(F)(F)F)c(-c2cc(C(=O)Nc3c(F)cccc3F)nn2C)cn1` [Example 32, N-(2,6-Difluoro-phenyl)-5-[6-ethoxy-4-(trifluoromethyl)-pyridin-3-yl]-1-methyl-1H-pyrazole-3-carboxylic acid amide], for which the IC50 in assay [1] lay in the range of 0.5 to 1 µM. For the same compound, the inhibition at 10 µM in assay [2] (setting [3]) is > 70%. The like results for `COc1cc(OC)c(-c2c(Cl)c(C(=O)Nc3c(F)cccc3F)nn2C)cn1` [Example 57, 4-Chloro-N-(2,6-difluoro-phenyl)-5-(4,6-dimethoxy-pyridin-3-yl)-1-methyl-1H-pyrazole-3-carboxylic acid amide] were, in that order, 1 to 5 µM and > 70%. On to `COc1cc(C2CC2)ncc1-c1cc(C(=O)Nc2c(F)cccc2F)nn1C` [Example 54, 5-(6-Cyclopropyl-4-methoxy-pyridin-3-yl)-N-(2,6-difluoro-phenyl)-1-methyl-1H-pyrazole-3-carboxylic acid amide], for which, in assay [1], the IC50 was < 0.5 µM. The inhibition at 10 µM in assay [2] (setting [3]) is > 70%.

`CCOc1cc(OC2COC2)c(-c2cc(C(=O)Nc3c(F)cccc3F)nn2C)cn1` [Example 49, N-(2,6-Difluoro-phenyl)-5-[6-ethoxy-4-(oxetan-3-yloxy)-pyridin-3-yl]-1-methyl-1H-pyrazole-3-carboxylic acid amide]: the IC50 in assay [1] is 1 to 5 µM. Also, the inhibition at 10 µM in assay [2] (setting [3]) lay in the range of 50 to 70%.

As to `COc1cc(OCC(F)(F)F)ncc1-c1cc(C(=O)Nc2c(F)cccc2F)nn1C` [Example 46, N-(2,6-Difluoro-phenyl)-5-[4-methoxy-6-(2,2,2-trifluoro-ethoxy)-pyridin-3-yl]-1-methyl-1H-pyrazole-3-carboxylic acid amide], the IC50 in assay [1] was < 0.5 µM. Also, the inhibition at 10 µM in assay [2] (setting [3]) was > 70%. As for `CCOc1cc(O)c(-c2cc(C(=O)Nc3c(F)cccc3F)nn2C)cn1` [Example 71, N-(2,6-Difluoro-phenyl)-5-(6-ethoxy-4-hydroxy-pyridin-3-yl)-1-methyl-1H-pyrazole-3-carboxylic acid amide], the inhibition at 10 µM in assay [2] (setting [3]) was < 50%. For the compound `COCc1cc(C)c(-c2cc(C(=O)Nc3c(F)cccc3F)nn2C)cn1` [Example 59, N-(2,6-Difluoro-phenyl)-5-[6-(methoxymethyl)-4-methyl-pyridin-3-yl]-1-methyl-1H-pyrazole-3-carboxylic acid amide], the figures for the inhibition at 10 µM in assay [2] (setting [4]) and in assay [2] (setting [3]) were 67% and 50 to 70%, respectively. For the compound `COc1cc(C(F)(F)F)ncc1-c1cc(C(=O)Nc2c(F)cccc2F)nn1C` [Example 42, N-(2,6-Difluoro-phenyl)-5-[4-methoxy-6-(trifluoromethyl)-pyridin-3-yl]-1-methyl-1H-pyrazole-3-carboxylic acid amide], the 50% inhibitory concentration (IC50) in assay [1] lay in the range of 0.5 to 1 µM. Still for that read-out and setting: the result for `Cc1cc(OCC2CCC2)ncc1-c1cc(C(=O)Nc2c(F)cccc2F)nn1C` [Example 18] reads 1 to 5 µM; that for `Cc1cc(OC(C)C)ncc1-c1cc(C(=O)Nc2c(F)cncc2F)nn1C` [Example 52, N-(3,5-Difluoro-pyridin-4-yl)-5-(6-isopropoxy-4-methyl-pyridin-3-yl)-1-methyl-1H-pyrazole-3-carboxylic acid amide], 0.5 to 1 µM; that for `COc1cc(C2CC2)ncc1-c1cc(C(=O)Nc2c(F)cncc2F)nn1C` [Example 53, 5-(6-Cyclopropyl-4-methoxy-pyridin-3-yl)-N-(3,5-difluoro-pyridin-4-yl)-1-methyl-1H-pyrazole-3-carboxylic acid amide], 0.5 to 1 µM. Take `Cc1cc(COc2cc(C)c(-c3cc(C(=O)Nc4c(F)cccc4F)nn3C)cn2)no1` [Example 19, N-(2,6-Difluoro-phenyl)-1-methyl-5-[4-methyl-6-[(5-methyl-isoxazol-3-yl)-methoxy]-pyridin-3-yl]-1H-pyrazole-3-carboxylic acid amide]: the results for the inhibition at 10 µM in assay [2] (setting [4]) and in assay [2] (setting [3]) were 113% and > 70%, respectively. Consider `Cn1nc(C(=O)Nc2c(F)cccc2F)cc1-c1nc(C(F)(F)F)ccc1C#N` [Example 72, 5-[3-Cyano-6-(trifluoromethyl)-pyridin-2-yl]-N-(2,6-difluoro-phenyl)-1-methyl-1H-pyrazole-3-carboxylic acid amide], for which the inhibition at 10 µM in assay [2] (setting [3]) is < 50%. On the same count and under the same terms, the result for `COc1cc(O)ncc1-c1cc(C(=O)Nc2c(F)cccc2F)nn1C` [Example 70, N-(2,6-Difluoro-phenyl)-5-(6-hydroxy-4-methoxy-pyridin-3-yl)-1-methyl-1H-pyrazole-3-carboxylic acid amide] reads < 50%. As to `COc1cc(N(C)C)c(-c2cc(C(=O)Nc3c(F)cccc3F)nn2C)cn1` [Example 75, N-(2,6-Difluoro-phenyl)-5-(4-dimethylamino-6-methoxy-pyridin-3-yl)-1-methyl-1H-pyrazole-3-carboxylic acid amide], the IC50 in assay [1] fell in the range of 1 to 5 µM.
